# Test results taken from the supplement of paper PMC11061612.
# Experiments:
# Test in all cases: Bliss excess, mean over the matrix (fraction); higher = more synergy
# [1] = tested on: RKO (Colorectal Carcinoma)
# In short: (§1)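 Cell lines grown in DMEM/F12 or RPMI with 10% FBS were plated in 1536-well plates and held 24 hours at 37°C, 5% CO2 before 72 hours of exposure to two-drug dose matrices, with DMSO typically at 0.2%. CellTiter-Glo 2.0 luminescence gave viability, which was converted to inhibition. Vehicle wells were set to 0 and blank wells to 1. Combination Emax is the second-highest inhibition in the matrix, and Bliss excess is the observed combination effect minus the expected EA + EB − EA·EB, where EA and EB are the single-agent effects.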
# [2] = tested on: SU-DHL-6 (B-Cell Non-Hodgkin's Lymphoma)
# In short: as §1
# [3] = tested on: NCI-H2795 (Mesothelioma)
# In short: as §1
# [4] = tested on: OC-314 (Ovarian Carcinoma)
# In short: as §1
# [5] = tested on: SW626 (Colorectal Carcinoma)
# In short: as §1
# [6] = tested on: NCI-H28 (Mesothelioma)
# In short: as §1
# [7] = tested on: MHH-PREB-1 (B-Cell Non-Hodgkin's Lymphoma)
# In short: as §1
# [8] = tested on: NCI-H2461 (Mesothelioma)
# In short: as §1
# [9] = tested on: SW1271 (Small Cell Lung Carcinoma)
# In short: as §1
# [10] = tested on: K5 (Thyroid Gland Carcinoma)
# In short: as §1
# [11] = tested on: SK-OV-3 (Ovarian Carcinoma)
# In short: as §1
# [12] = tested on: CAL-54 (Kidney Carcinoma)
# In short: as §1
# [13] = tested on: Mewo (Melanoma)
# In short: as §1
# [14] = tested on: LU-139 (Small Cell Lung Carcinoma)
# In short: as §1
# [15] = tested on: HCC-15 (Squamous Cell Lung Carcinoma)
# In short: as §1
# [16] = tested on: HDLM-2 (Hodgkin's Lymphoma)
# In short: as §1
# [17] = tested on: CAL-51 (Breast Carcinoma)
# In short: as §1
# [18] = tested on: SW1116 (Colorectal Carcinoma)
# In short: as §1
# [19] = tested on: 8305C (Thyroid Gland Carcinoma)
# In short: as §1
# [20] = tested on: KYSE-410 (Esophageal Squamous Cell Carcinoma)
# In short: as §1
SMILES,Bliss excess [1],Bliss excess [2],Bliss excess [3],Bliss excess [4],Bliss excess [5],Bliss excess [6],Bliss excess [7],Bliss excess [8],Bliss excess [9],Bliss excess [10],Bliss excess [11],Bliss excess [12],Bliss excess [13],Bliss excess [14],Bliss excess [15],Bliss excess [16],Bliss excess [17],Bliss excess [18],Bliss excess [19],Bliss excess [20]
"Cc1cc2ncnn2cc1Nc1ncc2c(n1)n(C1CCOCC1)c(=O)n2C [AZD7648] + O=C(c1cc(Cc2n[nH]c(=O)c3ccccc23)ccc1F)N1CCN(C(=O)C2CC2)CC1 [Olaparib] (first compound max 10 µM, 7x7, partner max 10 µM)",-0.0152,-0.0263,-0.0183,-0.0164,-0.0584,-0.0378,-0.026,-0.0601,-0.0461,-0.0159,-0.0478,-0.0408,-0.0885,-0.0492,-0.0059,-0.0558,-0.0214,-0.0421,-0.0478,-0.0466
"COc1cccc(OCCCN)c1-c1cc(Nc2cnc(C#N)cn2)n[nH]1 [Prexasertib] + C=CCn1c(=O)c2cnc(Nc3ccc(N4CCN(C)CC4)cc3)nc2n1-c1cccc(C(C)(C)O)n1 [AZD1775] (first compound max 1 µM, partner max 1 µM)",0.0521,0.25,0.0221,0.0884,0.0304,-0.0145,0.0729,-0.0573,0.0019,0.0807,0.0324,-0.024,0.0641,0.0089,0.0293,-0.0404,0.101,0.0689,0.0491,0.0066
"Cn1cnc2c(F)c(Nc3ccc(Br)cc3Cl)c(C(=O)NOCCO)cc21 [Selumetinib] + CCN(CCO)CCCOc1ccc2c(Nc3cc(CC(=O)Nc4cccc(F)c4)[nH]n3)ncnc2c1 [AZD2811] (first compound max 10 µM, 7x7, partner max 1 µM)",0.088,0.0923,-0.0238,-0.0193,0.025,-0.0745,-0.0203,-0.0026,-0.0324,0.0018,-0.0798,-0.0129,0.0389,0.0062,-0.03,-0.0267,0.0356,0.0021,-0.0075,0.0033
"C[C@@H](c1ccc2nccn2c1)n1nnc2ncc(-c3cnn(C)c3)nc21 [Savolitinib] + Cc1c2c(nn1C)CSCc1cc(n(C)n1)CSc1cc(c3ccccc3c1)OCCCc1c(C(=O)O)n(C)c3c-2c(Cl)ccc13 [AZD5991] (first compound max 1 µM, 7x7, partner max 1 µM)",-0.0067,-0.013,0.008,-0.018,0.0147,-0.0643,-0.0375,-0.048,-0.0415,-0.0085,-0.0556,-0.0337,-0.0237,-0.0213,-0.0349,-0.0099,-0.0115,-0.0252,-0.0781,-0.0749
"COc1nnc2ccc(N3CCC(c4ccc(OCCN5CCN(C)C(=O)[C@H]5C)cc4)CC3)nn12 [AZD5153] + Cn1cnc2c(F)c(Nc3ccc(Br)cc3Cl)c(C(=O)NOCCO)cc21 [Selumetinib] (first compound max 1 µM, 7x7, partner max 10 µM)",0.0263,-0.0278,-0.03,-0.064,-0.005,-0.0199,-0.0323,-0.0415,-0.0034,-0.0937,-0.0545,-0.0165,0.0325,0.0169,0.0567,-0.0407,0.0099,0.0036,-0.0323,-0.0784
"CC1(C)CCC(CN2CCN(c3ccc(C(=O)NS(=O)(=O)c4ccc(NCC5CCOCC5)c([N+](=O)[O-])c4)c(Oc4cnc5[nH]ccc5c4)c3)CC2)=C(c2ccc(Cl)cc2)C1 [Venetoclax] + Cc1cc2ncnn2cc1Nc1ncc2c(n1)n(C1CCOCC1)c(=O)n2C [AZD7648] (first compound max 1 µM, 7x7, partner max 10 µM)",-0.0396,0.049,-0.0113,-0.0115,-0.0098,-0.0166,0.0028,-0.0954,-0.115,-0.103,-0.134,-0.0295,-0.0181,-0.0013,-0.0033,0.0551,-0.0323,-0.0232,-0.0293,-0.0471
"Cc1cc2ncnn2cc1Nc1ncc2c(n1)n(C1CCOCC1)c(=O)n2C [AZD7648] + C[C@@H]1COCCN1C2=NC(=NC(=C2)C3(CC3)[S@](=N)(=O)C)C4=C5C=CNC5=NC=C4 [AZD6738] (first compound max 10 µM, 7x7, partner max 10 µM)",0.0059,-0.0598,0.0603,0.0565,0.0302,0.081,0.0336,-0.0188,0.0274,0.0129,0.0411,-0.0183,-0.0217,0.0121,0.0093,-0.0357,0.0017,0.0285,0.02,0.0285
